Experiments:
Assay type in all cases: cell-based
[1] = tested on: Lactobacillus (L. crispatis); experiment: In vitro growth of L. crispatis bacteria with GML
From the text: (§1) Thus, it was surprising to discover that a number of other bacterial genera (see below) were highly sensitive to the direct toxic effects of GML.

[2] = tested on: Candida albicans (five clinical isolates); experiment: Growth inhibition of five other clinical isolates of Candida albicans in liquid culture (absorbance at 600 nm, CFU/ml); conditions: for average CFU/ml after culturing: 6 hours, start about 10^6 CFU/ml
Protocol: Five clinical isolates of Candida albicans (separate from those tested in experiments described in Example 2) were tested for susceptibility to growth inhibition by GML. The data in FIG. 3 are the means of values obtained by separately testing each of the five clinical isolates. The experiments were performed in liquid culture as described in Example 2 except that, instead of measuring the number of organisms in the cultures by plating on agar plates, values of absorbance at 600 nm were determined at the indicated time points. An absorbance value of 6.5 corresponds to about 5×10^8 CFU/ml of Candida albicans. The growth of all of the isolates was inhibited by GML. Culturing for 6 hours 0.1 ml aliquots of the isolates (containing about 10^6 CFU/ml) in 100 μg/ml and 500 μg/ml of GML yielded an average of about 700 CFU/ml and about 400 CFU/ml, respectively.

[3] = tested on: Gardnerella vaginalis (clinical isolate); experiment: G. vaginalis liquid culture with GML in the presence of 10% fetal calf serum; conditions: for Cells/ml (×10^7) at 24 hours: 10% fetal calf serum
Protocol: Cells (1.2×10^7/ml in a total volume of 25 ml of dialyzable beef heart medium) of a recent clinical isolate of the gram negative rod Gardnerella vaginalis in vitro were cultured for various lengths of time with various concentrations of GML. At the various time points, the concentration of bacteria in the cultures were determined by colony counting on chocolate agar plates. GML at concentrations as low as 5 μg/ml were bactericidal to G. vaginalis. […] This finding points to the likely efficacy of GML in vivo. Moreover, GML (5 μg/ml or greater) inhibited growth of G. vaginalis plated (0.1 ml at 1.2×10^7/ml) onto chocolate agar plates (Table 3; data obtained after 24 hours of culturing).

Escherichia coli = experiment: Direct toxicity of GML to Escherichia coli
From the text: as §1

[4] = tested on: Candida albicans (clinical isolates, yeast phase); experiment: Yeast phase Candida albicans liquid cultures with GML, CFU/ml by plating
Protocol: The Candida albicans samples that were tested in the experiments described in Examples 2 and 3 were recent clinical isolates. The strains were of low passage and were maintained on Todd Hewitt (Difco Laboratories, Detroit, Mich.) agar plates. The organisms were transferred to 25 ml Todd Hewitt broth cultures in 125 ml Erlenmeyer flasks and grown overnight at 37° C. in 7% CO2 with shaking at 200 revolutions per minute (RPM). The next morning the organisms were transferred to new 125 ml flasks containing 25 ml Todd Hewitt medium at a final concentration of 1×10^6 colony forming units (CFU)/ml. […] The GML was made up at a concentration of 100,000 μg/ml in absolute ethanol for addition to the flasks. […] The flasks were cultured for up to 24 hours at 37° C. in 7% CO2 with shaking at 200 revolutions per minute. […] This experiment was performed twice.
The effect of growing yeast phase organisms of a clinical isolate of Candida albicans in the presence of GML was tested in liquid cultures as described in Example 1. […] The GML-mediated killing effect was not seen in cultures containing 20 and 10 μg/ml of GML. […] The experiment was repeated with identical results. The experiment was also carried out with a second clinical isolate of Candida albicans.

[5] = GML concentrations up to 100 μg/ml
[6] = first clinical isolate, 50, 200 and 1000 μg/ml GML, by 4 hours

CCCCCCCCCCCC(=O)OCC(O)CO (centres unmarked) [GML, glycerol monolaurate]
resistance to direct toxicity by GML [1]: relatively resistant
effect on in vitro growth ([1]; GML concentrations up to 50 μg/ml): had no effect
effect on in vitro growth [1, 5]: delayed (but did not stop) its growth
effect on stationary phase survival [1, 5]: extended their stationary phase survival
average CFU/ml after culturing ([2]; 100 μg/ml GML): about 700 CFU/ml
average CFU/ml after culturing ([2]; 500 μg/ml GML): about 400 CFU/ml
growth of the isolates ([2]; five clinical isolates, liquid culture, absorbance at 600 nm): inhibited
Cells/ml (×10^7) at 24 hours ([3]; GML 1 μg/ml): 210 Cells/ml (×10^7)
Cells/ml (×10^7) at 24 hours ([3]; GML 5 μg/ml): 201 Cells/ml (×10^7)
Cells/ml (×10^7) at 24 hours ([3]; GML 10 μg/ml): 160 Cells/ml (×10^7)
Cells/ml (×10^7) at 24 hours ([3]; GML 20 μg/ml): 88 Cells/ml (×10^7)
Cells/ml (×10^7) at 24 hours ([3]; GML 50 μg/ml): 1.8 Cells/ml (×10^7)
Cells/ml (×10^7) at 24 hours ([3]; GML 100 μg/ml): <0.03 Cells/ml (×10^7)
inhibition of growth of G. vaginalis ([3]; medium supplemented with fetal calf serum): effective in inhibiting the growth
resistance to direct toxicity by GML (Escherichia coli): relatively resistant
growth in culture ([4]; first clinical isolate, 20 and 10 μg/ml GML): grew to almost the same level as in the control cultures
organisms detectable in culture [4, 6]: no organisms were detectable
reduction in CFU/ml [4, 6]: > 5 log
number of organisms in culture compared to 0 μg/ml ([4]; second clinical isolate, 50 μg/ml GML, 2, 4 and 6 hours): reduced at all time intervals sampled
organisms detectable in culture ([4]; second clinical isolate, 100 and 500 μg/ml GML, by 2 hours): no organisms were detectable
